Experimental findings from the NIST ThermoML archive (doi:10.1021/je700020t) are described below.

The conditions of this series: 101.33 kPa, Liquid.

± gives the expanded uncertainty stated by the source.

`CCCI` [1-iodopropane]: the mass density (usually the mass of a sample divided by its volume) reads like this: (253.15 K) 1820.9 ± 1.8 kg/m3; (263.15 K) 1802.5 ± 1.7 kg/m3; (273.15 K) 1784.5 ± 1.7 kg/m3; (283.15 K) 1765.9 ± 1.6 kg/m3; (293.15 K) 1747.8 ± 1.5 kg/m3; (324.15 K) 1688.3 ± 1.6 kg/m3. The mass density by setting is: (343.15 K) 1652.2 ± 1.6 kg/m3; (358.15 K) 1622.3 ± 1.7 kg/m3.
Regarding `CCCCI` [1-iodobutane], the mass density reads like this: (253.15 K) 1670.9 ± 3.3 kg/m3; (263.15 K) 1655.2 ± 3.2 kg/m3; (273.15 K) 1639.1 ± 3.1 kg/m3; (283.15 K) 1623.7 ± 3 kg/m3; (293.15 K) 1607.6 ± 2.9 kg/m3; (298.15 K) 1599.8 ± 2.9 kg/m3. The mass density was determined as 1558.7 ± 2.9 kg/m3 (323.15 K), 1525.7 ± 2.9 kg/m3 (343.15 K), 1492 ± 2.9 kg/m3 (363.15 K) and 1457.2 ± 2.9 kg/m3 (383.15 K).
